In brackets after ≈: the same amount, converted by molar mass. Entries after “also recorded” stand apart in the source; their conditions may differ. Like-named read-outs stand apart in the source and are kept apart here.
Key:
[1] = tested on: Staphylococcus epidermidis; assay: Susceptibility (MIC) of S. epidermidis isolates used in CVC studies
[2] = tested on: Methicillin-resistant coagulate negative staphylococci biofilms; type: cell-based, coagulase negative staphylococci (S. epidermidis isolates)
Procedure: Methicillin-resistant coagulate negative staphylococci biofilms were grown to approximately 10^5 cells per cm^2 for 24 h in glass test tubes, planktonic bacteria rinsed away and Mueller Hinton broth (calcium supplemented to […] in daptomycin tests) containing antimicrobials added to the tubes. The concentrations of antimicrobials studied were two-fold dilutions from 64 to 1 μg/mL of daptomycin, rifampin, or daptomycin plus 0.5 μg/mL rifampin. The tests were incubated overnight in room air at 37° C. The cell density in rinsed biofilms was determined prior to addition of antimicrobials and after incubation. The change in bacterial density after incubation with antimicrobials was determined, and the results were expressed as the lowest antimicrobial concentration that killed 99.90% of biofilm bacteria. Bacteria recovered from tests containing rifampin were tested for rifampin susceptibility.

[3] = tested on: S. epidermidis CVC infection; assay: Rat model of CVC infection, antibiotic lock therapy; type: in vivo, Sprague Dawley rats
Procedure: (§1) Male Sprague Dawley rats (˜250 g) with catheterized jugular veins were used in these studies. Rat catheters (polyurethane tubing, 0.025 inch internal diameter) were inoculated with a culture of S. epidermidis at 5×10^8 CFU/ml. The total volume of the catheters is approximately 40 μl. The catheters were flushed with heparinized saline 1 hour after inoculation, and were maintained by daily flushes. The catheter infection was monitored by daily blood draws that were plated and quantified.
(§2) Daptomycin, vancomycin and nafcillin were used as therapy. Two different dosing regimes were used. The first mimicked clinical infusion with daptomycin administered at 5 mg/ml in the line for 30 minutes once daily compared to vancomycin at 5 mg/ml for 60 minutes twice daily, for a total of 4 days. The second regime simulated antibiotic lock therapy with an 18 hour exposure of daptomycin or vancomycin at 5 mg/ml, followed by a heparinized saline flush, daily for 3 days. In both regimes, the animals received parenteral doses of the appropriate antibiotic by subcutaneous route to simulate total body exposure (as it was not possible to administer the correct dosages through the line at 5 mg/ml). Most trials involved a therapy period, followed by a period of no antibiotic therapy to monitor for resurgence of infection due to surviving bacterial colonies.
(§3) Infection levels were monitored by daily blood draws through the infected catheter. For the terminal harvest, a final blood draw was taken and then the flushed catheter was harvested, and analyzed for surviving bacteria by sonication, vortexing, and plating. The vena cava, heart, lung, kidney, and spleen were assayed as potential metastatic infection sites by aseptic harvest, homogenization, and plating.

[4] = tested on: Staphylococcus aureus; assay: Susceptibility (MIC) of S. aureus #42 control strain; type: cell-based; conditions: strain 42 Staphylococcus aureus; read-out: MIC
[5] = tested on: S. epidermidis CVC infection; assay: Rat model of CVC infection, infusion therapy; type: in vivo, Sprague Dawley rats
Procedure: as §1, §2, §3

[6] = tested on: S. epidermidis biofilm in catheter; assay: Histopathology of CVC biofilms in the rat model; type: in vivo, Sprague Dawley rats
Procedure: The nature of the CVC infection and resulting biofilms in the catheter was determined through histopathology. The data on histopathology can be summarized as follows: • 1. Eight days after implantation, the rat central venous catheter model develops focal biofilms with or without bacterial colonies in the catheter's inner luminal surfaces. At this time point, the thickness of the biofilm varies between 7 to 15 microns. • 2. After 12 days of implantation, the fibrils making up the inner luminal surface biofilm appear to be denser and more organized, and the biofilm layer is slightly thicker (up to 25 microns). • 3. In the saline negative controls, bacterial colonies were present in the biofilm, and identified as Gram positive cocci. • 4. […] However, cocci-like, Gram positive individual round structures were noted. • 5.
At day 12 post infection in untreated rats, as in the previous time point, biofilms tended to be present in the inner luminal surfaces of the indwelling catheter, 5-25 microns thick, and contained variable numbers of basophilic granular bacterial colonies (confirmed by Gram stain). However, in contrast to the previous time point, focal portions of the luminal protein cast appeared to be more organized and contained numerous bluish bacterial colonies. See FIG. 10 showing the biofilm appearance at day 12 post infection. […] Rat A1 served as negative control and received saline (2 mL/kg SC+saline via catheter); Rat A6 received low-dose daptomycin (10 mg/kg SC+5 mg/mL via catheter); Rat A12 received high-dose daptomycin (33 mg/kg SC+5 mg/mL via catheter); and Rat A17 received vancomycin (50 mg/kg SC+5 mg/mL via catheter). Tissues from the four rats were evaluated. FIG. 11, below, is a composite of the findings for all four rats.
FIG. 11 provides histopathological evidence of daptomycin and vancomycin efficacy after 4 days of infusion therapy. In FIG. 11, from left to right, the images illustrate the CVC tissues from rats A1, A6, A12, and A17, respectively. The upper images are all H&E-stained and the bottom images are all Gram-stained. […] These round structures surrounded or encircled cell membranes.

[7] = tested on: stationary phase S. epidermidis; assay: In vitro model of stationary phase bacteria (kill kinetics); type: cell-based; conditions: for Cidal activity against stationary phase culture: through 24 hours
Procedure: The impact of cidal activity of antibacterial compounds on stationary phase bacteria was assayed. Cultures of S. epidermidis and S. aureus were grown to stationary phase (>1×10^9 and centrifuged, washed 2×, and then resuspended into saline or lactated Ringer's solution. The cultures were treated with either daptomycin or vancomycin at 5 mg/ml and the decrease in viable bacteria were measured through 24 hours to determine the kill kinetics.

[8] = Antimicrobial Concentration ≧64
[9] = following 7 days of antibiotic-free heparin flushes

SMILES: CCCCCCCCCC(=O)N[C@@H](Cc1c[nH]c2ccccc12)C(=O)N[C@H](CC(N)=O)C(=O)N[C@@H](CC(=O)O)C(=O)N[C@@H]1C(=O)NCC(=O)N[C@@H](CCCN)C(=O)N[C@@H](CC(=O)O)C(=O)N[C@H](C)C(=O)N[C@@H](CC(=O)O)C(=O)NCC(=O)N[C@H](CO)C(=O)N[C@@H]([C@H](C)CC(=O)O)C(=O)N[C@@H](CC(=O)c2ccccc2N)C(=O)O[C@@H]1C [Daptomycin]
- MIC ([1]; strain 119 Staphylococcus epidermidis): 0.25 µg/mL (≈ 0.154 µM)
- MIC ([1]; strain 1315 Staphylococcus epidermidis): 0.5 µg/mL (≈ 0.309 µM)
- MIC ([1]; strain 1316 Staphylococcus epidermidis): 0.5 µg/mL (≈ 0.309 µM)
- MIC ([1]; strain 1317 Staphylococcus epidermidis): 1 µg/mL (≈ 0.617 µM)
- MIC ([1]; strain 1318 Staphylococcus epidermidis): 1 µg/mL (≈ 0.617 µM)
- MIC ([1]; strain 1319 Staphylococcus epidermidis): 1 µg/mL (≈ 0.617 µM)
- MIC ([1]; strain 1320 Staphylococcus epidermidis): 0.5 µg/mL (≈ 0.309 µM)
- # of isolates (lowest concentration that killed 99.90% of biofilm bacteria) ([2]; Antimicrobial Concentration 1): 0
- # of isolates (lowest concentration that killed 99.90% of biofilm bacteria) ([2]; Antimicrobial Concentration 2): 5
- Mean log10 reduction ([2]; Antimicrobial Concentration 2): 3.3 log10
- # of isolates (lowest concentration that killed 99.90% of biofilm bacteria) ([2]; Antimicrobial Concentration 4): 4
- Mean log10 reduction ([2]; Antimicrobial Concentration 4): 3.2 log10
- # of isolates (lowest concentration that killed 99.90% of biofilm bacteria) ([2]; Antimicrobial Concentration 8): 5
- Mean log10 reduction ([2]; Antimicrobial Concentration 8): 3.8 log10
- # of isolates (lowest concentration that killed 99.90% of biofilm bacteria) ([2]; Antimicrobial Concentration 16): 1
- Mean log10 reduction ([2]; Antimicrobial Concentration 16): 3.5 log10
- # of isolates (lowest concentration that killed 99.90% of biofilm bacteria) ([2]; Antimicrobial Concentration 32): 2
- Mean log10 reduction ([2]; Antimicrobial Concentration 32): 3.6 log10
- # of isolates (lowest concentration that killed 99.90% of biofilm bacteria) [2, 8]: 10
- Mean log10 reduction [2, 8]: 2.0 log10
- Emergence of rifampin resistance in biofilm isolates ([2]; after exposure overnight): did not prevent emergence of rifampin resistance
- Cidal concentration in biofilm relative to comparator ([2]; comparison with rifampin): cidal at lower concentrations than was rifampin
- Isolates with bactericidal activity in biofilm ([2]; with ≦32 μg/mL daptomycin): 27 of 30
- Overall outcome of lock therapy ([3]; 18 hour lock at 5 mg/ml): curative and prevented resurgence; also recorded: reduced biofilm to a non-detectable level and largely prevented resurgence of infection
- Animals with positive blood draws after lock therapy [3, 9]: 0/6
- Animals with positive catheter at harvest after lock therapy [3, 9]: 1/6
- Metastatic infection after lock therapy ([3]; lock therapy combined with SC dosing): cleared and prevented reemergence of metastatic infection
- MIC [4]: 0.5 µg/mL (≈ 0.309 µM)
- Catheter infection by CVC blood draw after infusion therapy ([5]; 5 mg/ml in line, daptomycin once a day, vancomycin twice a day, after three days of therapy (day 8)): reduced most catheter infections to a non-detectable level
- Overall outcome of infusion therapy ([5]; 30 minute infusion at 5 mg/ml): temporarily reduced catheter infections to a non-detectable level, but infection resurgence was common; also recorded: reduced biofilm to non-detectable level, but a resurgence of infection was common
- Metastatic infection after infusion therapy (vena cava, heart, lung, kidney, spleen) ([5]; infusion therapy, same groups as FIG. 3): very little metastatic infection at any site
- Biofilm formation and Gram positive bacterial colonies in the biofilm (histopathology summary) ([6]; 5 mg/mL via the catheter): did not prevent biofilm formation, but prevented the growth and presence of Gram positive bacterial colonies in the biofilm
- Bacterial colonies in biofilm, histopathology of single rats ([6]; after 4 days of infusion therapy, rat A12 daptomycin 33 mg/kg SC + 5 mg/mL via catheter, rat A17 vancomycin 50 mg/kg SC + 5 mg/mL via catheter): not interpreted to be bacterial colonies
- Cidal activity against stationary phase culture ([7]; 5 mg/ml in lactated Ringer's): rapidly cidal; also recorded: cidal in lactated Ringer's
- Cidal activity against stationary phase culture ([7]; 5 mg/ml in saline): neither daptomycin nor vancomycin had cidal activity
- Cidal activity against stationary phase S. epidermidis (conclusion) ([7]; in vitro, medium not stated): cidal

Reference: US8003673B2, “Daptomycin for the treatment of biofilm and catheter salvage” (Cubist Pharmaceuticals, Inc., priority 2006, dated 2011)
